# Patent US20210115040A1, “OGA INHIBITOR COMPOUNDS” (Janssen Pharmaceutica NV, priority 2018, published 2021)
# Molecular target: T1, recombinant human Meningioma Expressed Antigen 5 (MGEA5), also referred to as O-GlcNAcase (OGA) (Homo sapiens, UniProt O60502)
# T1 construct: Full length OGA enzyme was purchased at OriGene (cat #TP322411); purchased OriGene TP322411
# T1 sequence (O60502 1-916): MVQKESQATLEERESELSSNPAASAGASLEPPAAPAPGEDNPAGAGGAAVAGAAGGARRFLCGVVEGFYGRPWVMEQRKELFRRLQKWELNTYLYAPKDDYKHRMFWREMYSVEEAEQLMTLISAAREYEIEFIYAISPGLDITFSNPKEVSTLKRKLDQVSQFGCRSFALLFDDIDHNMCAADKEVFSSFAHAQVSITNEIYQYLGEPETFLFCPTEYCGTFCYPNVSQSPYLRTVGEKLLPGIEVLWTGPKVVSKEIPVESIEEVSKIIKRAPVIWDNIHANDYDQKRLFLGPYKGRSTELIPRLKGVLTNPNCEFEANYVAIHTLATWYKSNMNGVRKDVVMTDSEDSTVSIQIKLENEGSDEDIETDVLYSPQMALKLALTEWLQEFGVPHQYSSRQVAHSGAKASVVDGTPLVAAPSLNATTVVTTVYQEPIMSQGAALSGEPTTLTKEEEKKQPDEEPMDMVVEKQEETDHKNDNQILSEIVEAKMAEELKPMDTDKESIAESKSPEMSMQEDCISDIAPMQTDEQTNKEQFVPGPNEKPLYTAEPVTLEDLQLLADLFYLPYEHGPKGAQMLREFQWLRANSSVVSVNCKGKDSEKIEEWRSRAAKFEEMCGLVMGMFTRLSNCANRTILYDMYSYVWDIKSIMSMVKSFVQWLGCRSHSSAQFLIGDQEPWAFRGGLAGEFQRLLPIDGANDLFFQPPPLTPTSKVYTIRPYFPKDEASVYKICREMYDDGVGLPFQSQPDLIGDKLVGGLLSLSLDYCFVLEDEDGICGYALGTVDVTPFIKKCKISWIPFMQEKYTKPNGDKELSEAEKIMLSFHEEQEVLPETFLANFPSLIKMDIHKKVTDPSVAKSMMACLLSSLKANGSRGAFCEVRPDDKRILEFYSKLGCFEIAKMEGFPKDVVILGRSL
# Assay: OGA biochemical assay (inhibition of FM-GlcNAc hydrolysis, fluorescence)
# Conditions: FM-GlcNAc substrate, 6 h at room temperature, read-out: Enzymatic hOGA, pIC50 (converted)
# Text: The assay is based on the inhibition of the hydrolysis of fluorescein mono-β-D-N-Acetyl-Glucosamine (FM-GlcNAc) (Mariappa et al. 2015, Biochem J 470:255) by the recombinant human Meningioma Expressed Antigen 5 (MGEA5), also referred to as O-GlcNAcase (OGA). The hydrolysis FM-GlcNAc (Marker Gene technologies, cat #M1485) results in the formation of β-D-N-glucosamineacetate and fluorescein. The fluorescence of the latter can be measured at excitation wavelength 485 nm and emission wavelength 538 nm. An increase in enzyme activity results in an increase in fluorescence signal. Full length OGA enzyme was purchased at OriGene (cat #TP322411). The enzyme was stored in 25 mM Tris.HCl, pH 7.3, 100 mM glycine, 10% glycerol at −20° C. Thiamet G and GlcNAcStatin were tested as reference compounds (Yuzwa et al. 2008 Nature Chemical Biology 4:483; Yuzwa et al. 2012 Nature Chemical Biology 8:393). The assay was performed in 200 mM Citrate/phosphate buffer supplemented with 0.005% Tween-20. 35.6 g Na2HPO4 2H2O (Sigma, #C0759) were dissolved in 1 L water to obtain a 200 mM solution. 19.2 g citric acid (Merck, #1.06580) was dissolved in 1 L water to obtain a 100 mM solution. pH of the sodiumphosphate solution was adjusted with the citric acid solution to 7.2. The buffer to stop the reaction consists of a 500 mM Carbonate buffer, pH 11.0. 734 mg FM-GlcNAc were dissolved in 5.48 mL DMSO to obtain a 250 mM solution and was stored at −20° C. OGA was used at a 2 nM concentration and FM-GlcNAc at a 100 uM final concentration. Dilutions were prepared in assay buffer.
# 50 nl of a compound dissolved in DMSO was dispensed on Black Proxiplate™ 384 Plus Assay plates (Perkin Elmer, #6008269) and 3 μl fl-OGA enzyme mix added subsequently. Plates were pre-incubated for 60 min at room temperature and then 2 μl FM-GlcNAc substrate mix added. […] Plates were briefly centrifuged for 1 min at 1000 rpm and incubate at room temperature for 6 h. To stop the reaction 5 μl STOP buffer were added and plates centrifuge again 1 min at 1000 rpm. Fluorescence was quantified in the Thermo Scientific Fluoroskan Ascent or the PerkinElmer EnVision with excitation wavelength 485 nm and emission wavelength 538 nm.
# For analysis a best-fit curve is fitted by a minimum sum of squares method. From this an IC50 value and Hill coefficient was obtained. High control (no inhibitor) and low control (saturating concentrations of standard inhibitor) were used to define the minimum and maximum values.
row,IC50 [nM],Structure (SMILES)
1,251,COc1cc(O[C@@H]2CCN(C(C)c3ccc4oc(C)nc4n3)C2)cc(C)n1 (mixture of isomers) [Compound 21ab]
2,126,Cc1cc(C[C@H]2CCCN(C(C)c3ccc4occc4n3)C2)cc(C)n1 (mixture of isomers) [Compound 38]
3,316,Cc1cc(OC[C@@H]2CCCN(C(C)c3ccc4sc(C)nc4n3)C2)cc(C)n1 (mixture of isomers) [Compound 45ab]
4,50.1,Cc1cc(C[C@@H]2CCN(C(C)c3cnc4[nH]c(C)nc4c3)C2)cc(C)n1 (mixture of isomers) [Compound 7]
5,39.8,Cc1cc(C[C@@H]2CCN(C(C)c3ccc4oc(C)nc4n3)C2)cc(C)n1 (mixture of isomers) [Compound 26]
6,100,COc1cc(C[C@@H]2CCN(C(C)c3ccc4oc(C)nc4n3)C2)cc(C)n1 (mixture of isomers) [Compound 28]
7,126,Cc1cc(C[C@H]2CCN(C(C)c3ccc4oc(C)nc4n3)C2)cc(C(F)(F)F)n1 (mixture of isomers) [Compound 29]
8,7.94,Cc1cc(C2CCCN(C(C)c3cc4nc(C)oc4cc3F)C2)cc(C)n1 (racemic) [Compound 32]
9,20,Cc1cc(C[C@@H]2CCN(C(C)c3cc4nc(C)oc4cc3F)C2)cc(C)n1 (mixture of isomers) [Compound 33ab]
10,10,Cc1cc(OC[C@H]2CCCN(C(C)c3cc4nc(C)oc4cc3F)C2)cc(C)n1 (mixture of isomers) [Compound 34]
11,100,Cc1cc(OC[C@@H]2CCCN(C(C)c3cc4nc(C)oc4cc3F)C2)cc(C)n1 (mixture of isomers) [Compound 35]
12,126,COc1cc(C[C@@H]2CCN(C(C)c3ccc4sc(C)nc4n3)C2)cc(C)n1 (mixture of isomers) [Compound 44]
13,1580,Cc1cc(C[C@H]2CCCN([C@@H](C)c3ccc4cn(C)nc4n3)C2)cc(C)n1 (relative stereo) [Compound 12a]
14,15.8,Cc1cc(C[C@H]2CCCN([C@H](C)c3ccc4cn(C)nc4n3)C2)cc(C)n1 (relative stereo) [Compound 12b]
15,200,COc1cc(C[C@H]2CCCN([C@@H](C)c3ccc4oc(C)nc4n3)C2)cc(C)n1 (relative stereo) [Compound 23b]
16,2.51,Cc1cc(C[C@@H]2CCN([C@H](C)c3cc4nc(C)oc4cc3F)C2)cc(C)n1 (relative stereo) [Compound 33a]
17,63.1,Cc1cc(C[C@@H]2CCN([C@@H](C)c3cc4nc(C)oc4cc3F)C2)cc(C)n1 (relative stereo) [Compound 33b]
18,7.94,"Cc1cc(C[C@H]2CCCN(C(C)c3cnc4[nH]c(C)nc4c3)C2)cc(C)n1 (single isomer, unassigned) [Compound 6b]"
19,501,"Cc1cc(C[C@H]2CCCN(C(C)c3ccc4sc(C)nc4n3)C2)cc(C)n1 (single isomer, unassigned) [Compound 42a]"
20,> 10000,"Cc1cc(C[C@H]2CCN(C(C)c3ccc4nc(C)sc4c3)C2)cc(C)n1 (single isomer, unassigned) [Compound 57]"

# Same assay, conditions: FM-GlcNAc substrate, maximal effect
row,Enzymatic Emax (%),Structure (SMILES)
1,100,"Cc1cc(C[C@H]2CCCN(C(C)c3cnc4[nH]c(C)nc4c3)C2)cc(C)n1 (single isomer, unassigned) [Compound 6b]"

# Same assay, conditions: FM-GlcNAc substrate, maximal effect, read-out: Enzymatic Emax (%)
row,Emax [%],Structure (SMILES)
1,97,COc1cc(O[C@@H]2CCN(C(C)c3ccc4oc(C)nc4n3)C2)cc(C)n1 (mixture of isomers) [Compound 21ab]
2,100,Cc1cc(C[C@H]2CCCN(C(C)c3ccc4occc4n3)C2)cc(C)n1 (mixture of isomers) [Compound 38]
3,98,Cc1cc(OC[C@@H]2CCCN(C(C)c3ccc4sc(C)nc4n3)C2)cc(C)n1 (mixture of isomers) [Compound 45ab]
4,100,Cc1cc(C[C@@H]2CCN(C(C)c3cnc4[nH]c(C)nc4c3)C2)cc(C)n1 (mixture of isomers) [Compound 7]
5,101,Cc1cc(C[C@@H]2CCN(C(C)c3ccc4oc(C)nc4n3)C2)cc(C)n1 (mixture of isomers) [Compound 26]
6,99,COc1cc(C[C@@H]2CCN(C(C)c3ccc4oc(C)nc4n3)C2)cc(C)n1 (mixture of isomers) [Compound 28]
7,103,Cc1cc(C[C@H]2CCN(C(C)c3ccc4oc(C)nc4n3)C2)cc(C(F)(F)F)n1 (mixture of isomers) [Compound 29]
8,99,Cc1cc(C2CCCN(C(C)c3cc4nc(C)oc4cc3F)C2)cc(C)n1 (racemic) [Compound 32]
9,99,Cc1cc(C[C@@H]2CCN(C(C)c3cc4nc(C)oc4cc3F)C2)cc(C)n1 (mixture of isomers) [Compound 33ab]
10,101,Cc1cc(OC[C@H]2CCCN(C(C)c3cc4nc(C)oc4cc3F)C2)cc(C)n1 (mixture of isomers) [Compound 34]
11,101,Cc1cc(OC[C@@H]2CCCN(C(C)c3cc4nc(C)oc4cc3F)C2)cc(C)n1 (mixture of isomers) [Compound 35]
12,99,COc1cc(C[C@@H]2CCN(C(C)c3ccc4sc(C)nc4n3)C2)cc(C)n1 (mixture of isomers) [Compound 44]
13,88,Cc1cc(C[C@H]2CCCN([C@@H](C)c3ccc4cn(C)nc4n3)C2)cc(C)n1 (relative stereo) [Compound 12a]
14,100,Cc1cc(C[C@H]2CCCN([C@H](C)c3ccc4cn(C)nc4n3)C2)cc(C)n1 (relative stereo) [Compound 12b]
15,101,COc1cc(C[C@H]2CCCN([C@@H](C)c3ccc4oc(C)nc4n3)C2)cc(C)n1 (relative stereo) [Compound 23b]
16,100,Cc1cc(C[C@@H]2CCN([C@H](C)c3cc4nc(C)oc4cc3F)C2)cc(C)n1 (relative stereo) [Compound 33a]
17,101,Cc1cc(C[C@@H]2CCN([C@@H](C)c3cc4nc(C)oc4cc3F)C2)cc(C)n1 (relative stereo) [Compound 33b]
18,98,"Cc1cc(C[C@H]2CCCN(C(C)c3ccc4sc(C)nc4n3)C2)cc(C)n1 (single isomer, unassigned) [Compound 42a]"
19,28,"Cc1cc(C[C@H]2CCN(C(C)c3ccc4nc(C)sc4c3)C2)cc(C)n1 (single isomer, unassigned) [Compound 57]"
